We go through twelve molecules from US12384756B2, “Piperidinedione derivatives” (INNOCURE THERAPEUTICS, INC., priority 2021, dated 2025).

One test has as its target BRD4 (Homo sapiens, UniProt O60885). Put plainly: BRD4 protein degradation by western blot in MDA-MB-231 cells. In kind it is cell-based. Also noted: BRD4 expressed in cells; endogenous in cells; host or cells: MDA-MB-231. The conditions noted are these: MDA-MB-231, 24 hours; for DC50: 50% inhibition of protein expression, read-out: DC50 of BRD4-targeted PROTAC. The procedure:
(§1) Human breast cancer cell line [MDA-MB-231] was cultured in RPMI medium with 10% petal bovine serum, penicillin [100 U/ml] and streptomycin [[…]]. The synthesized compound was prepared as a stock solution of 10 mM or 50 mM dissolved in DMSO [dimethyl sulfoxide], and it was sequentially diluted to treat the cell line.
To evaluate the PROTAC's degradation ability to BRD4 expressed in cells, the cells were aliquoted into a 6 well plate at a concentration of 5×10^5 cells/ml, and then the sample was treated for 24 hours. In order to conduct western blotting assay to confirm protein expression, the cell treated with the compound was treated for 30 minutes with 70 μL of RIPA buffer wherein protease inhibitor is added. Then, cell lysate was collected on ice using a scraper and centrifuged at 4° C. 15,000 rpm for 30 minutes to obtain a supernatant containing protein. Then, SDS-PAGE is conducted for 10 μg of protein per each sample, and the protein is transferred to a membrane. The protein is reacted with antibodies of anti-BRD4, anti-tubulin and anti-GAPDH at 4° C. for 16 hours, and then, reacted with secondary antibodies at room temperature for 1 hour. The protein expression is confirmed using SUPERSIGNAL™ WEST PICO PLUS chemiluminescence substrate and image analyzer. The protein expression was normalized based on the expression value of β-tublin or GAPDH. The amount of protein expression in each sample was measured in % based on the sample treated with 0.1% DMSO vehicle which was set to 100%. The amount of protein expression was quantified using the IMAGE J PROGRAM. The change in the amount of protein expression due to the treatment of compound (DC50: the concentration of compounds where the 50% inhibition of protein expression is achieved) was calculated using […] PRISM 8.0 software.
A general note: In western blotting, separated proteins are transferred to a membrane and probed.

For test [1], the system named is Human breast cancer cell line [MDA-MB-231]. In words: Anti-proliferative activity (WST-8) of BRD4 targeted PROTAC in MDA-MB-231. Format: cell-based. The conditions noted are these: MDA-MB-231, 72 hours. The procedure: as §1
In order to observe inhibition of cell growth, cells were aliquoted into concentrations of 5,000 cells/well at 96 well plates, and then were treated with samples prepared at various concentrations for 72 hours. The cell survival was calculated by steps of adding in each well […] of water soluble tetrazolium salt (WST-8) which produces formazon in response to dehydrogenase present in the electron transport chain in mitochondria, incubating for 2 hours, measuring the absorbance at 450 nm, and calculating by GraphicPad Prism 8.0 software.
(In general: Tetrazolium dyes change colour on reduction, which living cells bring about.)

The mark [2] stands for this setting: Homo sapiens, WST-8, read-out: IC50 of BRD4-targeted PROTAC (cell proliferation).
The mark [3] stands for this setting: Homo sapiens, read-out: concentration at which cancer cell proliferation is effectively inhibited.

Like-named read-outs stand apart in the source and are kept apart here.

For `Cc1sc2c(c1C)C(c1ccc(Cl)cc1)=N[C@@H](CC(=O)NCCNc1cccc3c(=O)n(C4CCC(=O)NC4=O)ncc13)c1nnc(C)n1-2` (stereo partly drawn) [Example 44, 2-((S)-4-(4-chlorophenyl)-2,3,9-trimethyl-6H-thieno[3,2-f][1,2,4]triazolo[4,3-a][1,4]diazepin-6-yl)-N-(2-((2-(2,6-dioxopiperidin-3-yl)-1-oxo-1,2-dihydrophthalazin-5-yl)amino)ethyl)acetamide], at BRD4, the DC50 (usually the concentration at which degradation of the target reaches its halfway point) came out at 930 nM. In addition, the IC50 in test [1] (setting [2]) is over 1000 nM.

On to `Cc1sc2c(c1C)C(c1ccc(Cl)cc1)=N[C@@H](CC(=O)NCCCCCNc1ccc3c(=O)n(C4CCC(=O)NC4=O)ncc3c1)c1nnc(C)n1-2` (stereo partly drawn) [Example 37, 2-((S)-4-(4-chlorophenyl)-2,3,9-trimethyl-6H-thieno[3,2-f][1,2,4]triazolo[4,3-a][1,4]diazepin-6-yl)-N-(5-((2-(2,6-dioxopiperidin-3-yl)-1-oxo-1,2-dihydrophthalazin-6-yl)amino)pentyl)acetamide], for which, on BRD4, the “BRD4 degradation (in words)” value is given as “effectively degraded” and the DC50 was determined as 0.173 nM. For the same molecule, the IC50 in test [1] (setting [2]) was under 1 nM. Moreover, the IC50 in test [1] (setting [3]) is under 250 nM.

Take `Cc1sc2c(c1C)C(c1ccc(Cl)cc1)=N[C@@H](CC(=O)NCCN1CCN(c3ccc4c(=O)n(C5CCC(=O)NC5=O)ncc4c3)CC1)c1nnc(C)n1-2` (stereo partly drawn) [Example 48, 2-((S)-4-(4-chlorophenyl)-2,3,9-trimethyl-6H-thieno[3,2-f][1,2,4]triazolo[4,3-a][1,4]diazepin-6-yl)-N-(2-(4-(2-(2,6-dioxopiperidin-3-yl)-1-oxo-1,2-dihydrophthalazin-6-yl)piperazin-1-yl)ethyl)acetamide]: on BRD4, the “BRD4 degradation (in words)” value is given as “effectively degraded” and the DC50 was 5.9 nM. Further, the IC50 in test [1] (setting [2]) amounted to 2.15 nM. Besides, in test [1] (setting [3]), the IC50 was under 250 nM.

On to `Cc1sc2c(c1C)C(c1ccc(Cl)cc1)=N[C@@H](CC(=O)NCCN1CCN(c3ccc4cnn(C5CCC(=O)NC5=O)c(=O)c4c3)CC1)c1nnc(C)n1-2` (stereo partly drawn) [Example 49, 2-((S)-4-(4-chlorophenyl)-2,3,9-trimethyl-6H-thieno[3,2-f][1,2,4]triazolo[4,3-a][1,4]diazepin-6-yl)-N-(2-(4-(3-(2,6-dioxopiperidin-3-yl)-4-oxo-3,4-dihydrophthalazin-6-yl)piperazin-1-yl)ethyl)acetamide], for which the “BRD4 degradation (in words)” value on BRD4 is given as “effectively degraded”. Also, the DC50 at BRD4 turned out to be 40.7 nM. Also, the results for the IC50 in test [1] (setting [2]) and in test [1] (setting [3]) were 30.6 nM and under 250 nM, respectively.

As for “N-(4-(2-(2,6-dioxopiperidin-3-yl)-1-oxo-1,2-dihydrophthalazin-6-yl)butyl)-2-((S)-2,3,9-trimethyl-4-phenyl-6H-thieno[3,2-f][1,2,4]triazolo[4,3-a][1,4]diazepin-6-yl)acetamide [Example 47]”, the DC50 on BRD4 amounted to 52.3 nM. In addition, in test [1] (WST-8, read-out: IC50 of BRD4-targeted PROTAC (cell proliferation)), the IC50 amounted to 754 nM.

`Cc1sc2c(c1C)C(c1ccc(Cl)cc1)=N[C@@H](CC(=O)NCCCN1CCN(CCCNc3cccc4cnn(C5CCC(=O)NC5=O)c(=O)c34)CC1)c1nnc(C)n1-2` (stereo partly drawn) [Example 38, 2-((S)-4-(4-chlorophenyl)-2,3,9-trimethyl-6H-thieno[3,2-f][1,2,4]triazolo[4,3-a][1,4]diazepin-6-yl)-N-(3-(4-(3-((3-(2,6-dioxopiperidin-3-yl)-4-oxo-3,4-dihydrophthalazin-5-yl)amino)propyl)piperazin-1-yl)propyl)acetamide]: the DC50 on BRD4 is 66.5 nM. Also, in test [1] (setting [2]), the IC50 is 568 nM.

For `Cc1sc2c(c1C)C(c1ccc(Cl)cc1)=N[C@@H](CC(=O)Nc1cccc(OCCOCCOCCNc3ccc4c(=O)n(C5CCC(=O)NC5=O)ncc4c3)c1)c1nnc(C)n1-2` (stereo partly drawn) [Example 41, 2-((S)-4-(4-chlorophenyl)-2,3,9-trimethyl-6H-thieno[3,2-f][1,2,4]triazolo[4,3-a][1,4]diazepin-6-yl)-N-(3-(2-(2-(2-((2-(2,6-dioxopiperidin-3-yl)-1-oxo-1,2-dihydrophthaazin-6-yl)amino)ethoxy)ethoxy)ethoxy)phenyl)acetamide], on BRD4, the “BRD4 degradation (in words)” value is “effectively degraded” and the DC50 was 4.4 nM. Moreover, in test [1] (setting [2]), the IC50 stood at 137 nM. Also, the IC50 in test [1] (setting [3]) was under 250 nM.

On to `Cc1sc2c(c1C)C(c1ccc(Cl)cc1)=N[C@@H](CC(=O)NCCOc1cccc3cnn(C4CCC(=O)NC4=O)c(=O)c13)c1nnc(C)n1-2` (stereo partly drawn) [Example 45, 2-((S)-4-(4-chlorophenyl)-2,3,9-trimethyl-6H-thieno[3,2-f][1,2,4]triazolo[4,3-a][1,4]diazepin-6-yl)-N-(2-((3-(2,6-dioxopiperidin-3-yl)-4-oxo-3,4-dihydrophthalazin-5-yl)oxy)ethyl)acetamide], for which the DC50 on BRD4 stood at 108 nM. The IC50 in test [1] (setting [2]) is over 1000 nM.

With `Cc1sc2c(c1C)C(c1ccc(Cl)cc1)=N[C@@H](CC(=O)NCc1cn(CCOCCOCCOCCNc3cccc4c(=O)n(C5CCC(=O)NC5=O)ncc34)nn1)c1nnc(C)n1-2` (stereo partly drawn) [Example 34, 2-[(9S)-7-(4-chlorophenyl)-4,5,13-trimethyl-3-thia-1,8,11,12-tetraazatricyclo[8.3.0.0^2,6]trideca-2(6),4,7,10,12-pentaen-9-yl]-N-{[1-(2-{2-[2-(2-{[2-(2,6-dioxopiperidin-3-yl)-1-oxo-1,2-dihydrophthalazin-5-yl]amino}ethoxy)ethoxy]ethoxy}ethyl)-1H-1,2,3-triazol-4-yl]methyl}acetamide], the DC50 at BRD4 was 38.6 nM. For the same molecule, the IC50 in test [1] (setting [2]) is over 1000 nM.

As for `Cc1sc2c(c1C)C(c1ccc(Cl)cc1)=N[C@@H](CC(=O)NCCOCCOCCOCCn1cc(CNc3cccc4cnn(C5CCC(=O)NC5=O)c(=O)c34)nn1)c1nnc(C)n1-2` (stereo partly drawn) [Example 36, 2-[(9S)-7-(4-chlorophenyl)-4,5,13-trimethyl-3-thia-1,8,11,12-tetraazatricyclo[8.3.0.0^2,6]trideca-2(6),4,7,10,12-pentaen-9-yl]-N-{2-[2-(2-{2-[4-({[3-(2,6-dioxopiperidin-3-yl)-4-oxo-3,4-dihydrophthalazin-5-yl]amino}methyl)-1H-1,2,3-triazol-1-yl]ethoxy}ethoxy)ethoxy]ethyl}acetamide], the DC50 on BRD4 was found to be 663 nM. In test [1] (setting [2]), the IC50 was over 1000 nM.

On to `Cc1sc2c(c1C)C(c1ccc(Cl)cc1)=N[C@@H](CC(=O)NCCNc1cccc3cnn(C4CCC(=O)NC4=O)c(=O)c13)c1nnc(C)n1-2` (stereo partly drawn) [Example 43, 2-((S)-4-(4-chlorophenyl)-2,3,9-trimethyl-6H-thieno[3,2-f][1,2,4]triazolo[4,3-a][1,4]diazepin-6-yl)-N-(2-((3-(2,6-dioxopiperidin-3-yl)-4-oxo-3,4-dihydrophthalazin-5-yl)amino)ethyl)acetamide], for which the DC50 at BRD4 amounted to 185 nM. In addition, the IC50 in test [1] (setting [2]) was over 1000 nM.

For the molecule `Cc1sc2c(c1C)C(c1ccc(Cl)cc1)=N[C@@H](CC(=O)NCC#Cc1ccc3c(=O)n(C4CCC(=O)NC4=O)ncc3c1)c1nnc(C)n1-2` (stereo partly drawn) [Example 40, 2-((S)-4-(4-chlorophenyl)-2,3,9-trimethyl-6H-thieno[3,2-f][1,2,4]triazolo[4,3-a][1,4]diazepin-6-yl)-N-(3-(2-(2,6-dioxopiperidin-3-yl)-1-oxo-1,2-dihydrophthalazin-6-yl)prop-2-yn-1-yl)acetamide], on BRD4, the “BRD4 degradation (in words)” value is “effectively degraded” and the DC50 is 10.9 nM. In addition, the IC50 in test [1] (setting [2]) came to 227 nM. The IC50 in test [1] (setting [3]) was under 250 nM.
